These results are taken from paper PMC10337138 (Acta Neuropathologica Communications, 2023).

One experiment deals with BLK (Homo sapiens, UniProt P51451). Kind of experiment: AssayQuant Sox-peptide kinase panel, […] compound, […] ATP; […] inhibition. In kind it is biochemical.
Another experiment has as its target BRK/PTK6 (Homo sapiens, UniProt Q13882). The experiment is described as above. In kind it is biochemical.

Sequence of BRK/PTK6 (Q13882 whole entry): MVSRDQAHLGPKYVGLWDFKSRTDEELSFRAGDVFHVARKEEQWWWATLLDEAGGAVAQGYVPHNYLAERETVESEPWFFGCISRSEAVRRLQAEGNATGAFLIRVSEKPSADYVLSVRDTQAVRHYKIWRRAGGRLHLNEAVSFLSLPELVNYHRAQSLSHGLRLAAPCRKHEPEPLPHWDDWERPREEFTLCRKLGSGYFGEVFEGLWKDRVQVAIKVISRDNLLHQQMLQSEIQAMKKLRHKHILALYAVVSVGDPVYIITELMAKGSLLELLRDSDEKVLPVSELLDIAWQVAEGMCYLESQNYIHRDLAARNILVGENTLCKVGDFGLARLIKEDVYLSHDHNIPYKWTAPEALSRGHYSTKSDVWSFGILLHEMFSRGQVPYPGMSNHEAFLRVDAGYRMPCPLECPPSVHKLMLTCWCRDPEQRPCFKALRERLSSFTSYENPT
Sequence of BLK (P51451 2-505): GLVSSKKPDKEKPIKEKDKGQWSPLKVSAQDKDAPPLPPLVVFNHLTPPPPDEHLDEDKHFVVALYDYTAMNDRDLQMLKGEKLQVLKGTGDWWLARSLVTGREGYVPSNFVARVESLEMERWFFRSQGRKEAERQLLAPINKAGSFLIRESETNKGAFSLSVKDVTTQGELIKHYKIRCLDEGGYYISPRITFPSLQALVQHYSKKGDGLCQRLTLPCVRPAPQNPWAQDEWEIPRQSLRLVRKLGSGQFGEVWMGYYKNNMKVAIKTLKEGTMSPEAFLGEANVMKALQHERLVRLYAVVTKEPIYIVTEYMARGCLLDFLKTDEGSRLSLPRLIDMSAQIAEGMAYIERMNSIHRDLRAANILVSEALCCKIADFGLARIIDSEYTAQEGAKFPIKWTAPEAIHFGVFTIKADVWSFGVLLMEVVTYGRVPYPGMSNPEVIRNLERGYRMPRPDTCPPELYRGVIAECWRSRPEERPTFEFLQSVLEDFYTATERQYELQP

On to GB7208, for which the “% inhibition at 1 μM” value on BLK and on BRK/PTK6 was over 50 in each case.
